Assay results reported in US10650534B2, “Display control and image processing of a cell image” (Sony Corporation, priority 2011, dated 2020).
Entries after “also recorded” stand apart in the source; their conditions may differ.

Tested on: cultured cardiomyocytes
Assay: Propagation of pulsation in cultured cardiomyocytes after drug administration, shown by two-dimensional color maps of the motion amount absolute value
Format: cell-based
Details: for speed of propagation of pulsation / state (direction, path) of propagation of pulsation: compared with organic solvent (control); for state (direction, path) of propagation of pulsation: color maps over 0 to 240 ms; for stop of propagation of pulsation / region without pulsation (motionless region): within the observation region
From the text: A drug evaluation apparatus 100 illustrated in FIG. 3 is an apparatus that conducts evaluation of a drug administered to cultured cardiomyocytes 110 by observing a motion of the cardiomyocytes 110. […] The imaging unit 101 images the cultured cardiomyocytes 110 during a predetermined period. That is, the imaging unit 101 obtains a moving image of the cultured cardiomyocytes 110 as an object. The imaging unit 101 images the cultured cardiomyocytes 110 before and after the drug administration. Note that the imaging unit 101 may image the cultured cardiomyocytes 110 several times after the drug administration according to a predetermined condition, such as after a predetermined time having passed, for example. The evaluation index data generation unit 103 performs, in each frame image of the supplied object to be evaluated image data 112, motion detection of the object to be observed (cultured cardiomyocytes 110) for each block that is a subregion obtained by dividing all regions of an image of the object to be observed (cultured cardiomyocytes 110) into a plurality of regions. The evaluation index data generation unit 103 expresses the detected motion of each block as a motion vector, and obtains the magnitude of the motion vector (motion amount). Note that this motion amount is an absolute value, and therefore, hereinafter, the motion amount will be also referred to as a motion amount absolute value. The evaluation unit 104 maps the motion amount absolute value supplied as the evaluation index data 113 into a two-dimensional color map, and evaluates the drug by expressing the state of propagation of pulsation and further, by quantitatively evaluating the state thereof. The evaluation unit 104 outputs the two-dimensional color map and a quantitative evaluation result as an evaluation value 114. The two-dimensional color map indicates the size of a parameter at each position on a plane in color. In this case, the plane represents an observation region of the cultured cardiomyocytes 110, and the color represents the motion amount absolute value (size of the value). That is, a position of the motion amount absolute value is represented by a position on the plane, and the size of the value is represented in color. That is, a distribution of the motion amount absolute value within the observation region is indicated by a change of the color on the plane. Examples of such a two-dimensional color map are illustrated in FIGS. 4 to 6. The eight color maps illustrated in FIG. 4 respectively indicate the distribution of the motion amount absolute value within the observation region, and a position on the color map indicates a position within the observation region and higher color density indicates a larger motion amount absolute value. […] Note that the arrows on the color maps are drawn for the purpose of description, and they are not drawn on actual color maps.

SMILES | speed of propagation of pulsation | state (direction, path) of propagation of pulsation | stop of propagation of pulsation / region without pulsation (motionless region)
CCCCCCCO [1-Heptanol] | the speed of the propagation is slow | linearly propagated as time passes while changing the direction to revolve | –
CC1(C)[C@@H](O)CC[C@]2(C)[C@H]3C(=O)C=C4[C@@H]5C[C@@](C)(C(=O)O)CC[C@]5(C)CC[C@@]4(C)[C@]3(C)CC[C@@H]12 [18-β-Glycyrrhetinic acid] | the speed of the propagation is slow | proceeds into various directions | the propagation of the pulsation temporarily stops
CC(C)NCC(O)c1ccc(NS(C)(=O)=O)cc1 (racemic) [DL-sotalol] | the speed of the propagation is slower than the left side | propagated from an upper left side to a lower right side, but the propagation stops within the observation region | pulsation is not caused in a part of the observation region in the right side; also recorded: the pulsation is not propagated to the right side portion of the observation region
